Measurements reported in patent US20250320245A1, “Nucleoside Analogues for the Treatment of Parasitic Infections” (Universiteit Antwerpen, priority 2021, published 2025).
Where two headings read alike, the source gives them in different places.

How the values were obtained:
Format in all cases: cell-based
[1] = Cytotoxicity assay on MRC-5 fibroblasts; details: human; for CC50 at 3 day: MRC-5SV2 embryonic lung fibroblasts, Table 1, mean and SEM of two independent experiments, highest concentration 64 μM, read-out: MRC-5 off-target cytotoxicity (CC50); for IC50 at 3 day: MRC-5SV2 human embryonic lung fibroblasts, Table 3, compounds wherein X=N
Protocol: MRC-5SV2 (Sigma-Aldrich/ECACC, catalogue number 84100401) human embryonic lung fibroblasts were used to perform cytotoxicity assays. The cells were cultured in minimum essential medium (MEM, Life Technologies) with Earle's salt medium, supplemented with L-glutamine, NaHCO3 and 5% inactivated fetal bovine serum (iFBS). Cells were seeded at 1.5×10^4 cells/well and 4-fold compound dilutions were immediately added with a highest in-test concentration of 64 μM. After a 3-day incubation, resazurin (Sigma-Aldrich) was added to each well (final concentration of 10 μg mL^−1), and cell viability was assessed by fluorescent reading (Tecan®, GENios) following 4 h of incubation with resazurin (37° C./5% CO2). The results were expressed as percentage reduction in cell growth/viability compared to control wells and the 50% cytotoxic concentration (CC50) was calculated for each of the compounds.

T. brucei (Squib 427) = assay: In vitro drug susceptibility assay, T. brucei; details: Trypanosoma brucei
Protocol: (§1) Drug susceptibility assays with T. brucei (Squib 427), T. evansi type A (RoTat 1.2) and T. equiperdum (BoTat 1.1) were performed under similar conditions. Parasites were cultured in HMI-9 culture medium supplemented with 10% iFBS. To determine in vitro susceptibility of the abovementioned Trypanosoma species, 10 concentrations of a 4-fold dilution series (with a highest in-test concentration of 64 μM) was prepared for each compound, and parasites were seeded at 1.5×10^4 parasite/well. After 72 h of drug exposure at 37° C. with 5% CO2, resazurin was added to the wells (final concentration of 10 μg mL^−1), followed by another incubation for 24 h. Cell viability was determined by fluorescence reading (Tecan®, GENios) and 50% inhibitory concentration (IC50) was calculated for each compound.

T. vivax (ILRAD700) = assay: Ex vivo drug susceptibility assay, T. vivax; details: Trypanosoma vivax
Text: T. congolense (IL3000), the isometamidium (ISM)-resistant T. congolense strain (MSORO M7H), T. evansi type A (RoTat 1.2), T. evansi type B (KETRI 2479) and T. equiperdum (BoTat 1.1) used for in vitro, ex vivo and in vivo experiments were kindly provided by the Institute of Tropical Medicine (ITM), and T. vivax (ILRAD700) and T. congolense (TC13) used for ex vivo and in vivo experiments, were kindly provided by the University of Brussel (VUB).
Ex Vivo Drug Susceptibility Assays for T. vivax, T. congolense ISM-Resistant, and T. evansi Type B
For Trypanosoma species/strains that were not adapted to culture conditions, donor mice were infected intraperitoneally with 10^4 parasites. Around day 5-6 post infection, blood was collected via cardiac puncture and parasites were isolated using mini-anion exchange centrifugation technique (mAECT). 4-fold dilutions of the test compounds were prepared with the highest concentration of 64 μM, and parasites were seeded at 1×10^5 parasite/well. Following 24 h of drug exposure at 37° C. and 5% CO2, resazurin was added to the wells and plates were incubated (37° C./5% CO2) for another 24 h. Cell viability was determined by fluorescence reading (Tecan®, GENios), and IC50 values were calculated by non-linear regression (dose-response curve with variable slope) using Prism 8.0 (GraphPad Software Inc., San Diego, CA, USA).

L. infantum = assay: In vitro evaluation against L. infantum; details: Leishmania infantum; Table 3; compounds wherein X=N
T. congolense (IL3000) = assay: In vitro drug susceptibility assay, T. congolense; details: Trypanosoma congolense; Table 3; compounds wherein X=N
Protocol: Drug susceptibility assays for T. congolense (IL3000) were performed with parasites cultured in HMI-9 medium supplemented with 15% horse serum. Parasites were seeded at a concentration of 1.5×10^4 parasite/well and exposed to a 4-fold compound dilution series starting at a highest in-test concentration of 64 μM. Plates were incubated for 72 h at 34° C. and 5% CO2, followed by the addition of resazurin (Sigma, Aldrich) and a further incubation period of 24 h. Cell viability was quantified by fluorescence reading (Tecan®, GENios), and IC50 values were calculated by non-linear regression (dose-response curve with variable slope) using Prism 8.0 (GraphPad Software Inc., San Diego, CA, USA).

T. cruzi = assay: In vitro evaluation against T. cruzi; details: Trypanosoma cruzi; Table 3; compounds wherein X=N
[2] = system: T. equiperdum (BoTat 1.1); assay: In vitro drug susceptibility assay, T. equiperdum; details: Trypanosoma equiperdum; Table 3; compounds wherein X=N
Protocol: as §1

[3] = In vitro evaluation on PMM; details: mouse, Table 3, compounds wherein X=N
[4] = system: T. evansi type A (RoTat 1.2); assay: In vitro drug susceptibility assay, T. evansi type A; details: Table 3; compounds wherein X=N; type not stated; read-out: IC50 T. evansi
Protocol: as §1

[5] = Table 1, mean and SEM of two independent experiments, read-out: T. brucei in vitro activity (IC50)
[6] = Table 1, mean and SEM of two independent experiments, read-out: T. vivax in vitro activity (IC50)
[7] = Table 3, compounds wherein X=N, read-out: IC50 T. brucei
[8] = Table 3, compounds wherein X=N, read-out: IC50 T. vivax

SMILES | IC50 (T. brucei (Squib 427); [5]) [µM] | IC50 (T. vivax (ILRAD700); [6]) [µM] | IC50 (L. infantum) [µM] | IC50 (T. congolense (IL3000)) [µM] | IC50 (T. cruzi) [µM] | IC50 (T. brucei (Squib 427); [7]) [µM] | IC50 [2] [µM] | IC50 [3] [µM] | IC50 [4] [µM] | IC50 (T. vivax (ILRAD700); [8]) [µM] | CC50 at 3 day [1] [µM] | IC50 at 3 day [1] [µM]
CCCSc1ncnc2c1ccn2[C@@H]1O[C@H](CO)[C@@H](O)[C@H]1O [FH15935, 4-S-propyl-N7-(β-D-ribofuranosyl)pyrrolo[2,3-d]pyrimidine] | 0.03 ± 0.0009 | 0.023 ± 0.005 |  |  |  |  |  |  |  |  | > 64 | 
CCCCSc1ncnc2c1ccn2[C@@H]1O[C@H](CO)[C@@H](O)[C@H]1O [FH15936] | 0.03 ± 0.0001 | 0.024 ± 0.007 |  |  |  |  |  |  |  |  | > 64 | 
CCSc1ncnc2c1ccn2[C@@H]1O[C@H](CO)[C@@H](O)[C@H]1O [FH15938, 4-S-ethyl-N7-(β-D-ribofuranosyl)pyrrolo[2,3-d]pyrimidine] | 0.25 ± 0.05 | 0.031 ± 0.009 |  |  |  |  |  |  |  |  | 28.2 ± 2.03 | 
OC[C@H]1O[C@@H](n2ccc3c(SCC4CCCC4)ncnc32)[C@H](O)[C@@H]1O [FH15939, 4-cylopentylmethylthio-N7-(β-D-ribofuranosyl)pyrrolo[2,3-d]pyrimidine] | 0.032 ± 0.021 | 0.69 ± 0.25 |  |  |  |  |  |  |  |  | 32.3 ± 1 | 
OC[C@H]1O[C@@H](n2ccc3c(SCCCc4ccccc4)ncnc32)[C@H](O)[C@@H]1O [FH15940, 4-(3-phenylpropyl)thio-N7-(β-D-ribofuranosyl)pyrrolo[2,3-d]pyrimidine] | 0.106 ± 0.004 | 8.71 ± 1.19 |  |  |  |  |  |  |  |  | 24.3 ± 0.94 | 
OC[C@H]1O[C@@H](n2ccc3c(SC4CCCC4)ncnc32)[C@H](O)[C@@H]1O [FH15952, 4—S-cyclopentyl-N7-(β-D-ribofuranosyl)pyrrolo[2,3-d]pyrimidine] | 0.091 ± 0.001 | 0.62 ± 0.16 |  |  |  |  |  |  |  |  | 45.5 ± 1.87 | 
CCC(C)Sc1ncnc2c1ccn2[C@@H]1O[C@H](CO)[C@@H](O)[C@H]1O (stereo partly drawn) [FH15956, 4-S-sec-butyl-N7-(β-D-ribofuranosyl)pyrrolo[2,3-d]pyrimidine] | 0.36 ± 0.04 | 1.98 ± 0.94 |  |  |  |  |  |  |  |  | > 64 | 
OC[C@H]1O[C@@H](n2ccc3c(SC4CCCCC4)ncnc32)[C@H](O)[C@@H]1O [FH15957, 4-S-cyclohexyl-N7-(β-D-ribofuranosyl)pyrrolo[2,3-d]pyrimidine] | 0.19 ± 0.04 | 3.16 ± 0.71 |  |  |  |  |  |  |  |  | 58.8 ± 1.37 | 
Cc1ccc(CSc2ncnc3c2ccn3[C@@H]2O[C@H](CO)[C@@H](O)[C@H]2O)cc1 [FH15959, 4-S-(4-methylbenzyl)-N7-(β-D-ribofuranosyl)pyrrolo[2,3-d]pyrimidine] | 0.031 ± 0.001 | 18.8 ± 0.65 |  |  |  |  |  |  |  |  | > 64 | 
COc1ccc(CSc2ncnc3c2ccn3[C@@H]2O[C@H](CO)[C@@H](O)[C@H]2O)cc1 [FH15960] | 0.13 ± 0.008 | 0.82 ± 0.27 |  |  |  |  |  |  |  |  | > 64 | 
CCSc1ncnc2c1cnn2[C@@H]1O[C@H](CO)[C@@H](O)[C@H]1O [JB1032, 4-ethylthio-1-β-D-ribofuranosyl-1H-pyrazolo[3,4-d]pyrimidine] | 0.51 ± 0.05 | 1.36 ± 0.3 | 5.04 | 0.29 | 5.61 | 0.45 | 0.05 | > 64 | 0.39 | 1.42 | > 64 | > 64

Now from value to molecule, other results behind:

IC50 (T. brucei (Squib 427); [5]) [µM] | IC50 (T. vivax (ILRAD700); [6]) [µM] | IC50 (L. infantum) [µM] | IC50 (T. congolense (IL3000)) [µM] | IC50 (T. cruzi) [µM] | IC50 (T. brucei (Squib 427); [7]) [µM] | IC50 [2] [µM] | IC50 [3] [µM] | IC50 [4] [µM] | IC50 (T. vivax (ILRAD700); [8]) [µM] | SMILES | CC50 at 3 day [1] [µM] | IC50 at 3 day [1] [µM]
0.019 ± 0.002 | 32.3 ± 4.85 |  |  |  |  |  |  |  |  | OC[C@H]1O[C@@H](n2ccc3c(SCc4ccccc4)ncnc32)[C@H](O)[C@@H]1O [FH14905] | > 64 | 
0.085 ± 0.001 | 8.87 ± 0.09 |  |  |  |  |  |  |  |  | OC[C@H]1O[C@@H](n2ccc3c(SCc4ccc(Cl)c(Cl)c4)ncnc32)[C@H](O)[C@@H]1O [FH15934, 4-S-(3,4-dichlorobenzyl)-N7-(β-D-ribofuranosyl)pyrrolo[2,3-d]pyrimidine] | 13.9 ± 0.97 | 
0.031 ± 0.001 | 2.19 ± 0.61 |  |  |  |  |  |  |  |  | CCCCCSc1ncnc2c1ccn2[C@@H]1O[C@H](CO)[C@@H](O)[C@H]1O [FH15937, 4—S-pentyl-N7-(β-D-ribofuranosyl)pyrrolo[2,3-d]pyridimidine] | 35.3 ± 1 | 
0.44 ± 0.02 | 2.37 ± 1.47 |  |  |  |  |  |  |  |  | CC(C)c1ccc(CSc2ncnc3c2ccn3[C@@H]2O[C@H](CO)[C@@H](O)[C@H]2O)cc1 [FH15941, 4-S-(4-isopropylbenzyl)-N7-(β-D-ribofuranosyl)pyrrolo[2,3-d]pyrimidine] | 26.9 ± 1.38 | 
0.41 ± 0.01 | 4.93 ± 0.59 |  |  |  |  |  |  |  |  | OC[C@H]1O[C@@H](n2ccc3c(SCCc4ccccc4)ncnc32)[C@H](O)[C@@H]1O [FH15953, 4-S-phenethyl-N7-(β-D-ribofuranosyl)pyrrolo[2,3-d]pyrimidine] | 28.9 ± 1.34 | 
0.03 ± 0.004 | 0.23 ± 0.02 |  |  |  |  |  |  |  |  | CC(C)CCSc1ncnc2c1ccn2[C@@H]1O[C@H](CO)[C@@H](O)[C@H]1O [FH15954, 4-S-isopentyl-N7-(β-D-ribofuranosyl)pyrrolo[2,3-d]pyrimidine] | 43.2 ± 2.63 | 
0.032 ± 0.001 | 0.021 ± 0.002 |  |  |  |  |  |  |  |  | CC(C)CSc1ncnc2c1ccn2[C@@H]1O[C@H](CO)[C@@H](O)[C@H]1O [FH15955, 4-S-2-methylpropyl-N7-(β-D-ribofuranosyl)pyrrolo[2,3-d]pyrimidine] | > 64 | 
0.54 ± 0.04 | 0.46 ± 0.25 |  |  |  |  |  |  |  |  | CC(C)Sc1ncnc2c1ccn2[C@@H]1O[C@H](CO)[C@@H](O)[C@H]1O [FH15958] | > 64 | 
0.031 ± 0.01 | 2.86 ± 0.26 |  |  |  |  |  |  |  |  | OC[C@H]1O[C@@H](n2ccc3c(SCC4CCCCC4)ncnc32)[C@H](O)[C@@H]1O [FH15962, 4-S-cyclohexylmethyl-N7-(β-D-ribofuranosyl)pyrrolo[2,3-d]pyrimidine] | 19 | 
 |  | 10.8 | 0.07 | 2.15 | 0.54 | 0.09 | > 64 | 0.61 | 0.83 | CSc1ncnc2c1cnn2[C@@H]1O[C@H](CO)[C@@H](O)[C@H]1O [JB1031, 4-methylthio-1-β-D-ribofuranosyl-1H-pyrazolo[3,4-d]pyrimidine] |  | > 64
0.26 ± 0.01 | 1.21 ± 0.42 | 7.25 | 0.2 | 7.46 | 0.11 | 0.01 | > 64 | 0.06 | 1.2 | CCCCSc1ncnc2c1cnn2[C@@H]1O[C@H](CO)[C@@H](O)[C@H]1O [JB1033, 4-butylthio-1-β-D-ribofuranosyl-1H-pyrazolo[3,4-d]pyrimidine] | > 64 | > 64
 |  | 10.1 | 0.03 | 6.02 | 0.05 | 0.02 | > 64 | 0.1 | 7.24 | OC[C@H]1O[C@@H](n2ncc3c(SCc4ccccc4)ncnc32)[C@H](O)[C@@H]1O [JB1034, 4-benzylthio-1-β-D-ribofuranosyl-1H-pyrazolo[3,4-d]pyrimidine] |  | > 64
